Results taken from ChEMBL document CHEMBL1201862, “PubChem BioAssay data set” (2004).
Active and inactive are the calls of the source.

Tests used:
[1] = viability of HCT116 lacking mutant beta-catenin – cell-based, human colon tumor, dose response (AID 1045); format: functional;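 further: HCT116 colon tumor cells with beta catenin knocked out; cells exposed to compound for 60 hours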
[2] = viability of PTEN-deleted HCT116 cells – cell-based, HCT116 PTEN knockout, dose response (AID 1047); format: functional;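 further: HCT116 colon tumor cells with PTEN knocked out; cells exposed to compound for 60 hours before readout; potency for loss of cell viability measured by luminescence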
[3] = P. falciparum Dd2 growth inhibitors, dose response, SYBR Green, cherry-picked samples (AID 1159567); format: functional, cell-based
[4] = molecular target: Heat shock protein HSP 90-alpha (Homo sapiens, UniProt P07900); format: functional, organism-based
[5] = molecular target: T1, Calpain-2 catalytic subunit (Sus scrofa, UniProt P43367); experiment: m-calpain protease blockers, concentration series – biochemical, fluorogenic peptide substrate, dose response (AID 1420); format: functional
T1 sequence (P43367 whole entry): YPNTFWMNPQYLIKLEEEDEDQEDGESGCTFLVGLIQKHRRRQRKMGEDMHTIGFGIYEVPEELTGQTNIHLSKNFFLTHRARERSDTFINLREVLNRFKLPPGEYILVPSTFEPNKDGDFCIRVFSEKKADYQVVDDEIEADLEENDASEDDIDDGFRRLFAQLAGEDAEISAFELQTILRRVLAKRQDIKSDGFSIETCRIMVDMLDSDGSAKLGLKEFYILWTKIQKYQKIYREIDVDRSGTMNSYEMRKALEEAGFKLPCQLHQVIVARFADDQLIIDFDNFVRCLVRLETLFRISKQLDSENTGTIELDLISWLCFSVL

BJ [6] = experiment: cells; format: functional, cell-based; conditions: Homo sapiens
BJ [7] = experiment: BJ-TERT fibroblast viability loss – cell-based, RAS-independent, luminescence, dose response (AID 1933); format: functional; conditions: Homo sapiens
BJ [8] = experiment: BJ-TERT-LT-ST fibroblast viability loss – cell-based, RAS-independent, luminescence, dose response (AID 1935); format: functional; conditions: Homo sapiens;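 further: BJ fibroblasts immortalized with TERT plus LT and ST oncogenes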
[9] = DRD fibroblast viability loss – cell-based, non-viral oncogenic, luminescence, dose response (AID 1934); format: functional; conditions: Homo sapiens
[10] = HEK-293T viability loss after treatment – luminescence, T-cell screen hits, cytotoxicity control for TCR NF-kB inhibitor project, dose response (AID 489026); format: functional, cell-based;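 further: cells exposed to compound about 14 hours before the viability readout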
[11] = molecular target: T2, Replicative DNA helicase DnaB (Mycobacterium tuberculosis, UniProt P9WMR3); experiment: DnaB intein splicing inhibitors, dose response, biochemical, cell-free fluorescence (AID 449749); format: functional
T2 sequence (P9WMR3 whole entry): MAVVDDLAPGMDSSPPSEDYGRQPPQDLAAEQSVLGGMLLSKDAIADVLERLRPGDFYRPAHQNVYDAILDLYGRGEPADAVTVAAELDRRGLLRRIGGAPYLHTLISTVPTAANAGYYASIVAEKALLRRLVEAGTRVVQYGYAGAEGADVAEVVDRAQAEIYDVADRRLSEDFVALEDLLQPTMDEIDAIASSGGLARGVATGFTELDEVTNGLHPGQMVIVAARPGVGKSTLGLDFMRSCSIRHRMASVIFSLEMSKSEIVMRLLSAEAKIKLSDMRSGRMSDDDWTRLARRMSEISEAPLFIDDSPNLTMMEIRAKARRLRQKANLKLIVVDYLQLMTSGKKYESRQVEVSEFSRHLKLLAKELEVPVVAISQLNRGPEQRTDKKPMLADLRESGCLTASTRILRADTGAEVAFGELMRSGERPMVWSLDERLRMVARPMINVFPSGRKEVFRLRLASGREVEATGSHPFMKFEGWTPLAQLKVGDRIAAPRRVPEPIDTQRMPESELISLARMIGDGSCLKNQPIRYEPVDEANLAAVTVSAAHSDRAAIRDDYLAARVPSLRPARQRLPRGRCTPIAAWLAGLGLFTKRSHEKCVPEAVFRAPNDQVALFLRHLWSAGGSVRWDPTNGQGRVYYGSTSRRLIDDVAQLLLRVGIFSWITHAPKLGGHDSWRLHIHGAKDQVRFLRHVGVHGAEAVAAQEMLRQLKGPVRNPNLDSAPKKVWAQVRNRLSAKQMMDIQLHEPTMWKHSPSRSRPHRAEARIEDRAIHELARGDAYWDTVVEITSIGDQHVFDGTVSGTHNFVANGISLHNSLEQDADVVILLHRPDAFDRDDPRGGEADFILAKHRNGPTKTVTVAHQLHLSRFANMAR

Protein RecA = molecular target: T3, Protein RecA (Mycobacterium tuberculosis, UniProt P9WHJ3); experiment: Fluorescence Cell-Free Homogeneous Dose Retest to Identify Inhibitors of RecA-Intein Splicing Activity. [Related pubchem assays (depositor defined):AID2097, AID2223, AID489010, AID492950]; format: functional
T3 sequence (P9WHJ3 whole entry): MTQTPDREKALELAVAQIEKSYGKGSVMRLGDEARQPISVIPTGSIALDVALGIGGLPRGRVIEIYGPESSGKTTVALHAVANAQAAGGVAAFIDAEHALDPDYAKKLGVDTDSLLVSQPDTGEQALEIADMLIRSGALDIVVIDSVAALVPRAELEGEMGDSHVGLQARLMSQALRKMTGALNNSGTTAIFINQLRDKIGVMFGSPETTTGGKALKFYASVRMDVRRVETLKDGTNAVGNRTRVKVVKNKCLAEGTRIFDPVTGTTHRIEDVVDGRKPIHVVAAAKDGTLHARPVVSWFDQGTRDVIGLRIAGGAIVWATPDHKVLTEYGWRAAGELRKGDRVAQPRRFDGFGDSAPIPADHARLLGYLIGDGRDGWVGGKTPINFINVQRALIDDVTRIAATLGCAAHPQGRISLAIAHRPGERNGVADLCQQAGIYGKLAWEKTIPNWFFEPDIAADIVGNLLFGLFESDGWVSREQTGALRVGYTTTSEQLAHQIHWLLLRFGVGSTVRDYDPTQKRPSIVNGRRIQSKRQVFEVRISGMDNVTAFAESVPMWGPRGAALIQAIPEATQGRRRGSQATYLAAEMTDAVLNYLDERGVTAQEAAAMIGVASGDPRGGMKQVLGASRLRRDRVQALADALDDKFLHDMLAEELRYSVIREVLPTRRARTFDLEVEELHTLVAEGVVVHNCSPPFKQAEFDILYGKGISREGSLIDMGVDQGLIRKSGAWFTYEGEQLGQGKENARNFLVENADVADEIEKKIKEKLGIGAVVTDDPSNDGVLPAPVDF

Genome polyprotein = Genome polyprotein (dengue virus type 2, UniProt P29990); experiment: flavivirus cap methylation enzyme inhibition – biochemical, confirmation dose response, primary screen (AID 588689); format: functional
Genome polyprotein, sequence (P29990 2492-3391 limits assumed): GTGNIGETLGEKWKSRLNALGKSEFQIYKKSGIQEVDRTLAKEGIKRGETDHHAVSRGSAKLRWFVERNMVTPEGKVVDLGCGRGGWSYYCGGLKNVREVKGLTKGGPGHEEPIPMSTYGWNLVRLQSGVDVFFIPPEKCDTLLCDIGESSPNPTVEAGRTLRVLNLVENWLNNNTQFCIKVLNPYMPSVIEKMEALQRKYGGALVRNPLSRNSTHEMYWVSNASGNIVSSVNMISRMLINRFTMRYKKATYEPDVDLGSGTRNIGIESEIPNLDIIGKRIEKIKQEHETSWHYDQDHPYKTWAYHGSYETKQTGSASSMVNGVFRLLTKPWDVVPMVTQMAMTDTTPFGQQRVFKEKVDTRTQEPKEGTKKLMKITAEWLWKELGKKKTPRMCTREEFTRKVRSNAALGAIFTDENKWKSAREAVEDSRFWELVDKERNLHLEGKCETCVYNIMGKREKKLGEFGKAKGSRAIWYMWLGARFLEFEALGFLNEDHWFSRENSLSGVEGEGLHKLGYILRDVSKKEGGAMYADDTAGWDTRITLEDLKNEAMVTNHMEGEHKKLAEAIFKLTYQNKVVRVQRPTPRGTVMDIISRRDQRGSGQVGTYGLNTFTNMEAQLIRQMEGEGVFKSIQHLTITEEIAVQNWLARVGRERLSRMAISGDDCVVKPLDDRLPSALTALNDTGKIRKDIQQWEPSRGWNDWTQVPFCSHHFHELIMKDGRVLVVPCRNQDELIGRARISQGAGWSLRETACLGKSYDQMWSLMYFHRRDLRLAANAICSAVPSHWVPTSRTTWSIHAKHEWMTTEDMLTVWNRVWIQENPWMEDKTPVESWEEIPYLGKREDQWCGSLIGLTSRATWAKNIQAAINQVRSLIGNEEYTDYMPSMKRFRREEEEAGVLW

H9c2 = experiment: cells; format: functional, cell-based; conditions: Rattus norvegicus, H9c2, Myocardium;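 further: confirmatory concentration-response retest of ultra-high-throughput screening hits for modulation of myocardial damage; cell death induced by hydrogen peroxide oxidative stress; compound pretreatment for 60 min then peroxide exposure for 2 h; potency is for protecting the cells against peroxide damage rather than for killing them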
[12] = molecular target: Induced myeloid leukemia cell differentiation protein Mcl-1 (Homo sapiens, UniProt Q07820); format: functional
Induced myeloid leukemia cell differentiation protein Mcl-1, sequence (Q07820 whole entry): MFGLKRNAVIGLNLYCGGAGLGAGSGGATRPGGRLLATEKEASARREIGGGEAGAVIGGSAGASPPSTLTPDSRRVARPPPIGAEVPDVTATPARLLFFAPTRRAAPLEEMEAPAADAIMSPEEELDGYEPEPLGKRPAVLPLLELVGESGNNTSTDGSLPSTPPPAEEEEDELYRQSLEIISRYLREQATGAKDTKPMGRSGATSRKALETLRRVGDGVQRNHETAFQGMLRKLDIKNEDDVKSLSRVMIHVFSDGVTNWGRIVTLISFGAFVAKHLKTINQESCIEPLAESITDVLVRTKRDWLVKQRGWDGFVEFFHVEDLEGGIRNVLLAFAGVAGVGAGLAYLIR

[13] = NIH3T3 cell viability loss – ATP luminescence, mouse fibroblasts, counter-screen, dose response (AID 2010); format: functional, cell-based;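 further: cells exposed to compound for about 90 hours before reading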
[14] = Trypanosoma cruzi growth suppression in host cells – NIH3T3 host cells, beta-gal luminescence, confirmation (AID 2044); format: functional, cell-based;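 further: intracellular parasites grown in NIH/3T3 mouse fibroblasts as host cells; luminescent beta-galactosidase reporter signal from transgenic T. cruzi replicating inside host cells; inhibitors lower the luminescence signal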
[15] = molecular target: T4, Polyadenylate-binding protein 1 (Homo sapiens, UniProt P11940); experiment: MLLE binding blockers, Cy5 peptide tracer – biochemical, fluorescence polarization, Cy5-PAM2 peptide, secondary, miRNA deadenylation inhibitor project, dose response (AID 602260); format: functional; conditions: read-out: IC50_Mean
T4 sequence (P11940 whole entry, the tested form may be a part): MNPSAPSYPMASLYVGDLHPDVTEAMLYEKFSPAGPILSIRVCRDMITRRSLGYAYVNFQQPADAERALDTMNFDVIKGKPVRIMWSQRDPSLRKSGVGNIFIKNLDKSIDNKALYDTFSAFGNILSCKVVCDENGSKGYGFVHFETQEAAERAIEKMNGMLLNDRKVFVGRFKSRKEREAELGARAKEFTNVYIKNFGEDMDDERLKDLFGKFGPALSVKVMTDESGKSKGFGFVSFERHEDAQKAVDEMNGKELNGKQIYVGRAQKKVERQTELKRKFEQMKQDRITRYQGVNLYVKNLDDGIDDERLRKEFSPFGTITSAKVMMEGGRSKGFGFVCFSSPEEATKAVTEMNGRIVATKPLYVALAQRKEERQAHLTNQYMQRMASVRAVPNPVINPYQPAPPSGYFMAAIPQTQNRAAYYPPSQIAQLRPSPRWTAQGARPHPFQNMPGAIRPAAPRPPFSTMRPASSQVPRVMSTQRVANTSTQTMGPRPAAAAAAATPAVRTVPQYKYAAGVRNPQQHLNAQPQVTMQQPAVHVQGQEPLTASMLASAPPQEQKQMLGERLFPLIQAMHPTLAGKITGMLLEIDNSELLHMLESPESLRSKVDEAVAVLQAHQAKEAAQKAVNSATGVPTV

[16] = molecular target: T4, Polyadenylate-binding protein 1; experiment: MLLE domain peptide-binding blockers, IC50 – biochemical, fluorescence polarization, FITC-PAM2 peptide, dose response (AID 602259); format: functional; conditions: read-out: IC50_Mean

With Cc1ccc2nc(N3CC(=O)Nc4ccccc43)nc(-c3ccccc3)c2c1 the EC50 [1] was 10.4 µM (active) and the EC50 [2] was 11.5 µM (active).

For O=C(/C=C/c1ccc([N+](=O)[O-])cc1)c1cccnc1, the EC50 [1] was 4.4 µM (active) and the EC50 [2] was 5.8 µM (active).

In the case of CCCC#Cc1cnc2c(c1)C(=O)N([C@@H](C)CO)C[C@H](C)[C@H](CN(C)C(=O)Nc1cccc(F)c1)O2, the AC50 [3] is reported as 8.83 µM (active).

With CCCc1cc(=O)oc2cc(OCc3ccc(C(=O)O)cc3)ccc12 the AC50 [4] was 3.75 µM (active).

In the case of Cn1cc([N+](=O)[O-])c(C(=O)Nc2cc(Oc3cccnc3)cc([N+](=O)[O-])c2)n1, the EC50 [1] is reported as 1.02 µM (active), the EC50 [2] is reported as 1.24 µM (active) and the IC50 [5] is reported as 15.3 µM (not active).

For O=C(NC1CCCCC1)c1nc[nH]c1C(=O)Nc1ccc([N+](=O)[O-])cc1, the EC50 [1] was 8.87 µM (active) and the EC50 [2] was 8.84 µM (active).

With CCOC(=O)c1c(C)[nH]c(C(=O)N/N=C/c2ccc(Br)cc2)c1C the EC50 (BJ [6]) was 35.1 µM (inconclusive), the EC50 (BJ [7]) was 0.327 µM (active) and the EC50 (BJ [8]) was 0.733 µM (inconclusive). For the same compound, the EC50 [9] was 0.387 µM (active) and the IC50 [10] was > 80 µM (inactive).

For O=C1C(Cl)=C(N2CCCCC2)C(=O)N1c1ccccc1, the AC50 [11] was 8.22 µM (active), the EC50 (Protein RecA) was 3.22 µM (active) and the IC50 (Genome polyprotein) was 66.9 µM (active).

With COc1ccc(-c2ccc([C@@H]3[C@H]4CNC[C@@H]3N4C(=O)Nc3ccc(C(F)(F)F)cc3)cc2)cc1 the AC50 [3] was 15 µM (active).

With COCCNC(=O)COC(=O)c1ccc(OCC(=O)Nc2ccccc2OC)c(OC)c1 the IC50 (H9c2) was > 79 µM (inactive).

In the case of CO[C@H]1CN(C)C(=O)c2cc(NC(=O)C3CC3)ccc2OC[C@@H](C)N(Cc2cc(F)ccc2F)C[C@H]1C, the AC50 [3] is reported as 6.09 µM (active).

With COCCCNC(=O)/C(C#N)=C1\N=C(NC(=O)c2cccs2)c2ccccc21 the IC50 (H9c2) was > 79 µM (inactive).

In the case of CCCCOc1ccc(C(=O)NCC(=O)N(C)Cc2nc(O)c3ccccc3n2)cc1, the IC50 (H9c2) is reported as > 79 µM (inactive).

In the case of O=C(CNC(=O)c1ccccc1F)N/N=C/c1cc(Br)ccc1OC(=O)/C=C/c1ccco1, the IC50 (H9c2) is reported as > 79 µM (inactive).

With CC1Cc2ccccc2N1C(=O)Cn1nc(C(=O)O)c2ccccc2c1=O (stereo not drawn) the IC50 (H9c2) was 13.7 µM (active).

In the case of Cc1cc(N(CCO)CCO)ccc1C(c1ccc(N(CCO)CCO)cc1C)c1ccccc1Cl, the IC50 [12] is reported as 2.71 µM (active).

In the case of Cc1ccc2c(c1)c1nnc(S)nc1n2CCc1ccccc1, the EC50 [13] is reported as > 60 µM (not active), the EC50 [14] is reported as 2.1 µM (active) and the IC50 [15] is reported as > 66 µM (inactive). The IC50 [16] was > 66 µM (inactive).

With Cc1nnc(O)c2c(NC(=O)CSc3c(Cl)cccc3Cl)oc(C)c12 the IC50 [15] was > 66 µM (inactive) and the IC50 [16] was > 66 µM (inactive).
